From patent publication US20190125753A1, “COMPOUNDS AND METHODS FOR INCREASING HEMATOPOIESIS” (University of Southern California, priority 2016, published 2019)

Legend:
LSK150+41+48+ cells = experiment: RNA sequencing of progenitor population from treated mice; assay type: in vivo, mouse; conditions: 2 mg/kg vs DMSO, 16 hours
Procedure: DMSO or YH250 (2 mg/kg) were administrated to female C57/Black mice.

Wnt/β-catenin pathway = experiment: SuperTOPFLASH (STF1.1 Hek-293) Wnt/β-catenin-driven luciferase reporter; assay type: cell-based; conditions: Homo sapiens, HEK293; STF1.1 Hek-293; 1 hour pre-incubation, 10 mM LiCl 24 hours
Procedure: A. Wnt/β-Catenin Activity: The Initial SuperTOPFLASH Screen.
Hek293 cells were stably transfected with plasmid that contains multiple TCF/LEF fragments in front of Luciferase gene. Wnt/β-catenin activity was determined from luciferase expression levels. […] Briefly, stably transfected Hek-293, STFI.1 (Wnt/β-catenin-driven luciferase) and Survivin-Hek-293 (1 Kb Human survivin promoter-driven luciferase) cells were maintained in DMEM, 10% FBS, Pen/Strep with 400 μg/mL G418 or 2 μg/mL puromycin, respectively. To check the activity of ICG-001, YH249, and YH250, the cells were split into white-opaque 96-well plates at 10,000 cells per well and allowed to attach overnight. For SuperTOPLASH, the inhibitors were added to the cells and pre-incubated for 1 hour prior to stimulation with 10 mM Li Cl for 24 hours. Luciferase activity was read using BrightGlo (Promnega) luciferase substrate. For survivin/luc, the inhibitors were added to the cells and incubated for 24 hours prior to readout. To calculate IC5o values, the resulting curve was fitted to a four-parameter logistic model (4PL) using GraphPad Prism 5 software.
An endogenous human survivin 1 kb promoter was inserted before a luciferase gene. […] R1 and R2 were diversified in this study. Percent inhibition of luciferase activity was calculated according to the following equations; % inhibition of STF 1.1 reporter activity=(I−RLU(10 mM LiCl) treated/RLU(10 omM LiCl) vehicle×control)100, % inhibition of Survivin reporter activity=(1−RLUtreated/RLU vehicle control)×100. Error bars indicate the mean±SE of 3 separate experiments. Selectivity (FIG. 2H) was calculated by IC50 value for Survivin-Hek-293/IC50 value for STF 1.1.

7Gy irradiated animals = experiment: Peripheral blood count and body weight recovery after 7Gy radiation; assay type: in vivo
Procedure: YH250 was then tested for stimulating blood count recovery in irradiated animals. In this experiment, animals received 7Gy whole body radiation and then, either YH250 or DMSO was administrated 24 hours post radiation. Animal body weight and peripheral blood counts were measured to monitor hematopoietic recovery (FIGS. 20A-20B). […] It is worth noting that it is a full lineage blood cell count recovery, including white blood cell (lymphocyte, monocyte and neutrophil), red blood cell and platelet (FIG. 20C). The neutrophil and platelet recovery is most significant.

[1] = test system: Axin2 and survivin (Birc5) gene expression; experiment: qPCR gene expression in bone marrow Sca-1posit cells of treated mice; assay type: in vivo, mouse; conditions: 2 mg/kg overnight, Sca-1+ population
Procedure: Axin2 is a classical Wnt/catenin target genes and plays important regulatory roles in Wnt signaling. The inhibitor of apoptosis (IAP) family member survivin (Birc5) is another Wnt/catenin target gene. […] To study YH250 effects in bone marrow stem cell population gene expression, female C57/Black mice were treated with DMSO or YH250 (2 mg/kg) overnight and bone marrow Sca-1posit cells were isolated. Then, total RNA were extracted for cDNA synthesis and qPCR assay (FIG. 5A). As shown in FIGS. 5B-5C, both Axin2 and survivin gene expression were up regulated by YH250 in the Sca-1^+ population of the treated animals.

cord blood CD34+ cells = experiment: Cord blood CD34+ cell culture 7 days, FACS surface marker analysis; assay type: cell-based, human; conditions: 7th day
Procedure: A method to analyze expanded cord blood CD34+ cell phenotype using FACS is established. In this study, cord blood cells were cultured in vitro with 4GF and different concentrations of p300/-catenin antagonist such as YH250. Because the limited CD34+ cells in culture system, GFP transgenic mouse bone marrow cells were isolated and added to the cells as carrier cells in FACS analysis. The bright GFP positive carrier cells were gated out and the targeting cord blood cells were further analyzed for their surface marker. FIG. 13A depicts carrier cell only in FACS analysis.
Cord blood CD34+ cells were cultured in medium containing either 4GF or 6GF with different concentration of p300/-catenin antagonist YH250. At 7th day in culture, cells were recovered and mixed with carrier cells from GFP mice bone marrow. Antibodies to human HSC surface protein are added to the cells and human CD45posit cells were gated for FACS analysis. […] In 6GF medium, 10 μM of YH250 also gives more human CD45+CD34+ cells compared with DMSO (73.3% vs 66.2%, Table 5).

[2] = target: T1, p300/γ-catenin interaction (Mus musculus, UniProt B2RWS6); experiment: Co-IP of bone marrow Sca-1posit cells from treated mice (anti-p300); assay type: in vivo; conditions: YH250 2 mg/kg subcutaneously, 24 hrs
T1 construct: bone marrow Sca-1posit cells were isolated with Anti-Sca-1 microbeads; from tissue; host or cells: bone marrow Sca-1 positive cells of female C57/Black mice dosed in vivo
Procedure: YH250 was used in this study. Female C57/Black mice were administrated with either DMSO (solvent control) or YH250 (2 mg/kg) subcutaneously. 24 hrs later, bone marrow Sca-1posit cells were isolated with Anti-Sca-1 microbeads (Miltenyi Biotec, Cat#130-092-529) for co-immunoprecipitation (FIG. 4A). Cells were then lysed and incubated with either anti-CBP (A22) or anti-p300 (C20) antibodies. Then, the immunoprecipitation complex were electrophoresed and detected with antibodies to either β-catenin or γ-catenin. […] This confirms that YH250 directly disrupts the p300/catenin interaction thereby enhancing the CBP/catenin interaction in HSPCs.

[3] = administered 24 hours post radiation

T1 sequence (B2RWS6 2-2412 limits assumed): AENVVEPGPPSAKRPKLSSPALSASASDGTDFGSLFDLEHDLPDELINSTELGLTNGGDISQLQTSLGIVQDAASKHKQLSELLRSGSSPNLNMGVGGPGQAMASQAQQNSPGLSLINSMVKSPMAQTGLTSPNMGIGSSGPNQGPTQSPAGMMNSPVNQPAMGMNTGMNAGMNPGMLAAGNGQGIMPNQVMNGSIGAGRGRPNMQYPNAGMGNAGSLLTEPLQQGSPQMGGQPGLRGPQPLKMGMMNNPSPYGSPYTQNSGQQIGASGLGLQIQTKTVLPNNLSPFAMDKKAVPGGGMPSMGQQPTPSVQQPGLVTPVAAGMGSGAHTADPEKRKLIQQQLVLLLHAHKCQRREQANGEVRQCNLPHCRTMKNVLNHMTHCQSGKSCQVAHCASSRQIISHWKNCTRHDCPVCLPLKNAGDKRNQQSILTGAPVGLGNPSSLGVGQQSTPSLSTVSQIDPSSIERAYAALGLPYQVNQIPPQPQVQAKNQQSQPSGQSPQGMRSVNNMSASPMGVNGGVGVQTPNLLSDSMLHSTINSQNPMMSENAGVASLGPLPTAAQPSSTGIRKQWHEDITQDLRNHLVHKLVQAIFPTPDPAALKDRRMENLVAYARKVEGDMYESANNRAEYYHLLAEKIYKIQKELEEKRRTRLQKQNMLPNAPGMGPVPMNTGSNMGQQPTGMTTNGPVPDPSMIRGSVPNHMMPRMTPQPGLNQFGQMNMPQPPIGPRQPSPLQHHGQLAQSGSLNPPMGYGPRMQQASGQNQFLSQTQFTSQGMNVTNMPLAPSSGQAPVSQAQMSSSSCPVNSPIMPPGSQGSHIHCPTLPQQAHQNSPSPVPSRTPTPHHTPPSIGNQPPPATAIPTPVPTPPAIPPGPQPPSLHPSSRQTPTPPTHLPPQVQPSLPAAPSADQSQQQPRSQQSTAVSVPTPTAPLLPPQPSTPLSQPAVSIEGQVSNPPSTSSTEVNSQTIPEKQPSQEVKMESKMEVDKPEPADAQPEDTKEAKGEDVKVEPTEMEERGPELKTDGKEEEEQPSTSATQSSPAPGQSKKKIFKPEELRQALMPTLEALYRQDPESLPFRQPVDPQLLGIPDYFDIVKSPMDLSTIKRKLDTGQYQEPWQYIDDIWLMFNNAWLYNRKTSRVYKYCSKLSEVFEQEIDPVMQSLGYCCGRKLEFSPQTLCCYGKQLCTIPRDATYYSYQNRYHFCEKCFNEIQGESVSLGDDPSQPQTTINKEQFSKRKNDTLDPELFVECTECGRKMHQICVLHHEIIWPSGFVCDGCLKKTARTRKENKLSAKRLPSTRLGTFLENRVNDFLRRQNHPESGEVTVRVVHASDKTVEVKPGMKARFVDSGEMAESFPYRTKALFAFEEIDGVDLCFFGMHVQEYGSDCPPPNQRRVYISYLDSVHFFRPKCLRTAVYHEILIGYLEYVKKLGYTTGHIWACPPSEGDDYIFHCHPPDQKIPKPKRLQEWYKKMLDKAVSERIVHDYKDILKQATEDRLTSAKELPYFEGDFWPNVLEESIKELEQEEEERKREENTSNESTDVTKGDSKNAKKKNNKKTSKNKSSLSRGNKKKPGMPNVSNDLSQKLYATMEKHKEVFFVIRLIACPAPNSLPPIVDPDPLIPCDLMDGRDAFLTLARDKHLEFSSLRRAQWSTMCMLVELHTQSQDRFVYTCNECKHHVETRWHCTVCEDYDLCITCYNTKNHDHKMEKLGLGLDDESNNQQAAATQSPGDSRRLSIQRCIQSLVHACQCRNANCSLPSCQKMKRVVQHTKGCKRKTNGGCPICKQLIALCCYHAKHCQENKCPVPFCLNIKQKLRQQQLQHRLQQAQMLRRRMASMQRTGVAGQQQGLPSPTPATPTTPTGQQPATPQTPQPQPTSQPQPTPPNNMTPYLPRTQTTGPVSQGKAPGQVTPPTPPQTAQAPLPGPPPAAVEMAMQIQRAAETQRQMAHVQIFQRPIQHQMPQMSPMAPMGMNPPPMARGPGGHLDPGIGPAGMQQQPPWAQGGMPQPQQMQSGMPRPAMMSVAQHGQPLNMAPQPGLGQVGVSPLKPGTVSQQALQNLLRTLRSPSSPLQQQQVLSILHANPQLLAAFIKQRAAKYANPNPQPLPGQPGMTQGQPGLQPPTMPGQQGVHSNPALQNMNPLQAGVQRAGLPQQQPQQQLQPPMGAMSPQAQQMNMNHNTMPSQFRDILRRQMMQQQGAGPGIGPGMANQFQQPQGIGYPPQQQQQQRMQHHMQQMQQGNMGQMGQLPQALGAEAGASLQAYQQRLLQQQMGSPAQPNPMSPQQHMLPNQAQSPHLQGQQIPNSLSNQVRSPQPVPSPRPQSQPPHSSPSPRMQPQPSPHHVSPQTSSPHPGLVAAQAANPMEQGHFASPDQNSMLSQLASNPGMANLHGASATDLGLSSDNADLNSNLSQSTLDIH

COc1cccc(CNC(=O)N2C3CN(Cc4cc(Cl)cc(Cl)c4N(C)C)C(=O)[C@H](Cc4ccc(O)cc4)N3C(=O)CN2C)c1OC (stereo partly shown) [YH250]
Fold-Change Car1 (LSK150+41+48+ cells): −12.1 fold | Fold-Change Gm26377 (miRNA) (LSK150+41+48+ cells): −3.19 fold | Fold-Change Ighm (LSK150+41+48+ cells): 2.36 fold | Fold-Change Ighv11-2 (LSK150+41+48+ cells): 4.42 fold | Fold-Change Igkv19-93 (LSK150+41+48+ cells): 3.12 fold | Fold-Change Mid1 (LSK150+41+48+ cells): −2.8 fold | IC50 (Wnt/β-catenin pathway): < 100 nM | blood cell count at nadir points vs DMSO (7Gy irradiated animals): significantly higher | blood count recovery (full lineage) (7Gy irradiated animals; [3]): Accelerated blood count recovery | body weight (7Gy irradiated animals; [3]): very little weight drop | Axin2 gene expression [1]: up regulated | survivin gene expression [1]: up regulated | %34 + 38-45RA-33- (cord blood CD34+ cells; 4GF (SF6T), 1 μM, DMSO 3.9): 3.5% | %33-45RA- (cord blood CD34+ cells; 4GF (SF6T), 1 μM, DMSO 4.5): 5.0% | % CD3+ (cord blood CD34+ cells; 4GF (SF6T), 1 μM, DMSO 12.2): 16.0% | %34 + 38- (cord blood CD34+ cells; 4GF (SF6T), 1 μM, DMSO 64.5): 51.7% | %34+ (cord blood CD34+ cells; 4GF (SF6T), 1 μM, DMSO 79.1): 64.1% | %33-45RA- (cord blood CD34+ cells; 4GF (SF6T), 3 μM): 5.8% | %34+ (cord blood CD34+ cells; 4GF (SF6T), 3 μM): 84% | %34 + 38- (cord blood CD34+ cells; 4GF (SF6T), 3 μM): 65.5% | %34 + 38-45RA-33- (cord blood CD34+ cells; 4GF (SF6T), 3 μM): 5.2% | % CD3+ (cord blood CD34+ cells; 4GF (SF6T), 3 μM): 9.5% | %33-45RA- (cord blood CD34+ cells; 4GF (SF6T), 10 μM): 4.9% | %34+ (cord blood CD34+ cells; 4GF (SF6T), 10 μM): 89.1% | %34 + 38- (cord blood CD34+ cells; 4GF (SF6T), 10 μM): 65.3% | %34 + 38-45RA-33- (cord blood CD34+ cells; 4GF (SF6T), 10 μM): 4.5% | % CD3+ (cord blood CD34+ cells; 4GF (SF6T), 10 μM): 4.5% | %34 + 38-45RA-33- (cord blood CD34+ cells; 6GF (SF6T3G), 1 μM, DMSO 2.3): 4.4% | %33-45RA- (cord blood CD34+ cells; 6GF (SF6T3G), 1 μM, DMSO 2.5): 5.8% | % CD3+ (cord blood CD34+ cells; 6GF (SF6T3G), 1 μM, DMSO 22.6): 20.1% | %34 + 38- (cord blood CD34+ cells; 6GF (SF6T3G), 1 μM, DMSO 56.4): 53.9% | %34+ (cord blood CD34+ cells; 6GF (SF6T3G), 1 μM, DMSO 66.2): 62% | %33-45RA- (cord blood CD34+ cells; 6GF (SF6T3G), 3 μM): 5.6% | %34+ (cord blood CD34+ cells; 6GF (SF6T3G), 3 μM): 66.1% | %34 + 38- (cord blood CD34+ cells; 6GF (SF6T3G), 3 μM): 55.8% | %34 + 38-45RA-33- (cord blood CD34+ cells; 6GF (SF6T3G), 3 μM): 4.2% | % CD3+ (cord blood CD34+ cells; 6GF (SF6T3G), 3 μM): 18.8% | %33-45RA- (cord blood CD34+ cells; 6GF (SF6T3G), 10 μM): 6.1% | %34+ (cord blood CD34+ cells; 6GF (SF6T3G), 10 μM): 73.3% | %34 + 38- (cord blood CD34+ cells; 6GF (SF6T3G), 10 μM): 57.9% | %34 + 38-45RA-33- (cord blood CD34+ cells; 6GF (SF6T3G), 10 μM): 4.2% | % CD3+ (cord blood CD34+ cells; 6GF (SF6T3G), 10 μM): 13.8% | p300/γ-catenin interaction [2]: inhibits p300/γ-catenin interaction
